Among the data in PubChem BioAssay (NCI) are TGI and GI50 values, retold here.

“And” between values parts separate entries of the source, which are not always exact repeats. Equal entries are not always repeated.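 The compound was tested at five concentrations on cells cultured in 96-well plates, with a 48-hour exposure period. GI50 marks 50% less growth. TGI marks complete inhibition of growth.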

Some test systems named below: CCRF-CEM leukemia; K-562 leukemia; HOP-62 NSCLC; OVCAR-5 ovarian; HOP-92 NSCLC; A498 renal; NCI-H522 lung; LOX IMVI melanoma; MDA-MB-231 breast; NCI-H226 lung.
Test in all cases: DTP human tumour cell line panel, 48 h

As for `C=COCCCOc1ccccc1`, the TGI with CCRF-CEM leukemia, in the experiment with K-562 leukemia, in the experiment on HOP-62 NSCLC, in the experiment on OVCAR-5 ovarian, in the experiment with HOP-92 NSCLC and in the experiment on A498 renal was greater than 100 µM each time. The TGI with NCI-H522 lung, in the experiment on LOX IMVI melanoma, with MDA-MB-231 breast and in the experiment on NCI-H226 lung was greater than 100 µM throughout. Also, the GI50 with HOP-92 NSCLC, in the experiment on A498 renal and in the experiment with MDA-MB-231 breast was greater than 100 µM throughout.
Take `CCN1CCN(C(c2ccc(C(F)(F)F)cc2)c2ccc3cccnc3c2O)CC1` (configuration not stated): the GI50 (usually the concentration at which growth is held to half of that of the control) in the experiment on CCRF-CEM leukemia is 1.45 µM; in the experiment with K-562 leukemia, 3.49 µM; in the experiment on HOP-62 NSCLC, 1.32 µM; in the experiment with OVCAR-5 ovarian, 2.61 µM; with HOP-92 NSCLC, 3.62 µM; with A498 renal it was 2.31 µM. The GI50 was 5.01 µM with NCI-H522 lung, 1.71 µM with LOX IMVI melanoma, 2.97 µM with MDA-MB-231 breast and 3.09 µM with NCI-H226 lung. In addition, the TGI – broadly, the concentration giving total growth inhibition – with CCRF-CEM leukemia turned out to be 7.85 µM; in the experiment on K-562 leukemia, 14.6 µM; in the experiment on HOP-62 NSCLC, 13.7 µM; in the experiment with OVCAR-5 ovarian it was 14.6 µM; with HOP-92 NSCLC it was 25.3 µM; with A498 renal it was 14.1 µM. Also, the TGI with NCI-H522 lung came out at 18 µM; with LOX IMVI melanoma, 10.5 µM; with MDA-MB-231 breast it was 25.3 µM; in the experiment on NCI-H226 lung, 13.7 µM.
On to `O/N=C/C1C(OCc2ccccc2)C(OCc2ccccc2)C(OCc2ccccc2)CN1Cc1ccccc1` (configuration not stated), for which the TGI with CCRF-CEM leukemia was 71.2 µM and > 100 µM; in the experiment on K-562 leukemia, 36.6 µM and > 100 µM; in the experiment with HOP-62 NSCLC, 53.1 µM and > 100 µM; in the experiment on OVCAR-5 ovarian, 57.3 µM and > 100 µM; in the experiment with HOP-92 NSCLC, 33.1 µM and 9.16 µM; in the experiment on A498 renal it was greater than 100 µM. For the same compound, the TGI in the experiment on NCI-H522 lung is greater than 100 µM; in the experiment on LOX IMVI melanoma, 29.4 µM and > 100 µM; with MDA-MB-231 breast it was 93.7 µM; with NCI-H226 lung, 33.8 µM and 85.2 µM. Also, the GI50 is 17.8 µM and 45.4 µM in the experiment on HOP-62 NSCLC; 20 µM and 9.34 µM with OVCAR-5 ovarian; 13.6 µM and 1.99 µM in the experiment with HOP-92 NSCLC; 13.7 µM and 4.2 µM with NCI-H226 lung.
Consider `S=C1NC2(CCCCCC2)NN1c1ccccc1`, for which the concentration for total growth inhibition (TGI) in the experiment on CCRF-CEM leukemia was greater than 64.9 µM; in the experiment on K-562 leukemia it was 16.6 µM; in the experiment on HOP-62 NSCLC, greater than 22.7 µM; in the experiment with OVCAR-5 ovarian, greater than 100 µM; with HOP-92 NSCLC it was greater than 100 µM; in the experiment with A498 renal, greater than 100 µM. Further, the TGI in the experiment on NCI-H522 lung, in the experiment with LOX IMVI melanoma, with MDA-MB-231 breast and in the experiment on NCI-H226 lung was greater than 100 µM throughout.
Consider `CCCCCCCCCCCCOC1C(C(COC2OC(C3COC(C)(C)O3)C3OC(C)(C)OC23)NC(=O)Nc2ccc(C(=O)O)cc2)OC2OC(C)(C)OC21` (configuration not stated), for which the 50% growth inhibitory concentration (GI50) with CCRF-CEM leukemia is 0.306 µM; with K-562 leukemia it was 3.79 µM; with HOP-62 NSCLC it was 3.07 µM; in the experiment on OVCAR-5 ovarian, 2.67 µM; in the experiment on HOP-92 NSCLC, 2.55 µM; in the experiment with A498 renal, 2.48 µM. Also, the GI50 in the experiment with NCI-H522 lung is 2.56 µM; with LOX IMVI melanoma, 3.23 µM; with MDA-MB-231 breast, 1.99 µM; in the experiment with NCI-H226 lung, 3.45 µM. Further, the TGI was 0.577 µM in the experiment with CCRF-CEM leukemia; greater than 100 µM with K-562 leukemia; 10.4 µM with HOP-62 NSCLC; 6.85 µM in the experiment with OVCAR-5 ovarian; 8.04 µM in the experiment with HOP-92 NSCLC; 8.53 µM in the experiment with A498 renal. The TGI was determined as 6.93 µM in the experiment on NCI-H522 lung, 10.3 µM with LOX IMVI melanoma, 4.98 µM in the experiment with MDA-MB-231 breast and 19.2 µM in the experiment with NCI-H226 lung.
As for `C=C(CNCc1ccccc1)c1ccc(C(=O)Nc2ccccc2N)cc1`, the GI50 with K-562 leukemia is 2.58 µM; with HOP-62 NSCLC, 4.57 µM; in the experiment with OVCAR-5 ovarian, 14.4 µM; in the experiment on HOP-92 NSCLC, 15.1 µM; with A498 renal it was 1.06 µM; in the experiment with NCI-H522 lung it was 1.78 µM. The GI50 in the experiment on LOX IMVI melanoma is 2.45 µM; in the experiment on MDA-MB-231 breast it was 13.2 µM. The total growth inhibition concentration (TGI) with K-562 leukemia is greater than 100 µM; in the experiment on HOP-62 NSCLC, greater than 100 µM; with OVCAR-5 ovarian, 40.1 µM; in the experiment with HOP-92 NSCLC, 55.9 µM; in the experiment on A498 renal it was 7.83 µM; in the experiment with NCI-H522 lung it was 6.01 µM. Moreover, the concentration for total growth inhibition (TGI) with LOX IMVI melanoma was 8.88 µM; in the experiment on MDA-MB-231 breast it was 54.5 µM.
Take `NC(=Nc1c([N+](=O)[O-])cnc2ccccc12)N1CCOCC1`: the concentration for total growth inhibition (TGI) in the experiment on CCRF-CEM leukemia, in the experiment on K-562 leukemia, in the experiment on HOP-62 NSCLC, in the experiment with OVCAR-5 ovarian, with A498 renal and in the experiment with NCI-H522 lung was greater than 100 µM throughout. The TGI in the experiment with LOX IMVI melanoma, in the experiment with MDA-MB-231 breast and in the experiment on NCI-H226 lung was greater than 100 µM in each case.
Consider `OC[C@H]1C[C@](O)(c2ccc(Cl)cc2)[C@@H](c2ccc(Cl)cc2)O1`, for which the GI50 in the experiment on K-562 leukemia was 24.9 µM; in the experiment on HOP-62 NSCLC, 20.9 µM; in the experiment with OVCAR-5 ovarian, 25.9 µM; with HOP-92 NSCLC, 16.8 µM; with A498 renal, 24.6 µM; in the experiment on NCI-H522 lung, 26 µM. Also, the GI50 was 17.9 µM in the experiment on LOX IMVI melanoma, 19.6 µM in the experiment with MDA-MB-231 breast and 26.4 µM in the experiment with NCI-H226 lung. Also, the TGI came out at 76.5 µM in the experiment with K-562 leukemia; 51.8 µM with HOP-62 NSCLC; 71.7 µM in the experiment with OVCAR-5 ovarian; 45.6 µM in the experiment on HOP-92 NSCLC; 57.3 µM with A498 renal; 52.9 µM in the experiment on NCI-H522 lung. Moreover, the TGI came out at 34.8 µM with LOX IMVI melanoma, 46.9 µM in the experiment on MDA-MB-231 breast and 72.8 µM in the experiment with NCI-H226 lung.
In the case of `COc1cc(C#CC(=O)OC/C=C/c2ccc3c(c2)OCO3)cc(OC)c1OC`, the TGI in the experiment with CCRF-CEM leukemia is 49.3 µM; with K-562 leukemia, 58.1 µM; in the experiment with HOP-62 NSCLC it was 86 µM; with OVCAR-5 ovarian it was greater than 100 µM; in the experiment on HOP-92 NSCLC, 54.5 µM; in the experiment with A498 renal, 21.5 µM. Also, the results for the TGI in the experiment with LOX IMVI melanoma, in the experiment on MDA-MB-231 breast and in the experiment with NCI-H226 lung were 47.3 µM, 79.4 µM and 48.5 µM, respectively.
As to `C=C1C(=O)OC2CCN3CC=C(COC(=O)C(C)(O)C4(CO4)C1C)C23` (configuration not stated), the concentration for total growth inhibition (TGI) in the experiment on CCRF-CEM leukemia, in the experiment on K-562 leukemia, in the experiment with HOP-92 NSCLC, in the experiment on A498 renal, with NCI-H522 lung and in the experiment with LOX IMVI melanoma was greater than 100 µM each time. Further, the TGI with MDA-MB-231 breast and in the experiment with NCI-H226 lung was greater than 100 µM each time.
